According to US6706716B2, “Compounds specific for the human α1d adrenergic receptor and uses thereof” (Synaptic Pharmaceutical Corporation, priority 1998, dated 2004):

How the values were obtained:
[1] = test system: urethane-anesthetized rats; assay: Blood pressure in urethane-anesthetized, normotensive rats; assay type: in vivo, rat
Procedure: Rats were anesthetized with urethane and PE50 cannulae were placed in the femoral artery and vein for blood pressure monitoring and drug administration, respectively. After stabilization, rats were administered 200 μl saline vehicle or increasing doses of BMY 7378 or Compound 7 at 10 minutes intervals until the reduction in blood pressure reached a plateau. The 5-HT1A-selective antagonist WAY 100635 (1 mg/kg) was then administered and blood pressure monitored for an additional 10 minutes.

[2] = target: T1, human α1d adrenergic receptor (Homo sapiens, UniProt P25100); assay: Radioligand binding ([3H]prazosin) at cloned human α1d adrenergic receptor; conditions: LM(tk-) cell membranes, read-out: Binding affinities (pKi) α1d (converted)
T1 construct: The entire coding region. of α1d (1719 bp); expressed in transfected cells
T1 sequence (P25100 1-572): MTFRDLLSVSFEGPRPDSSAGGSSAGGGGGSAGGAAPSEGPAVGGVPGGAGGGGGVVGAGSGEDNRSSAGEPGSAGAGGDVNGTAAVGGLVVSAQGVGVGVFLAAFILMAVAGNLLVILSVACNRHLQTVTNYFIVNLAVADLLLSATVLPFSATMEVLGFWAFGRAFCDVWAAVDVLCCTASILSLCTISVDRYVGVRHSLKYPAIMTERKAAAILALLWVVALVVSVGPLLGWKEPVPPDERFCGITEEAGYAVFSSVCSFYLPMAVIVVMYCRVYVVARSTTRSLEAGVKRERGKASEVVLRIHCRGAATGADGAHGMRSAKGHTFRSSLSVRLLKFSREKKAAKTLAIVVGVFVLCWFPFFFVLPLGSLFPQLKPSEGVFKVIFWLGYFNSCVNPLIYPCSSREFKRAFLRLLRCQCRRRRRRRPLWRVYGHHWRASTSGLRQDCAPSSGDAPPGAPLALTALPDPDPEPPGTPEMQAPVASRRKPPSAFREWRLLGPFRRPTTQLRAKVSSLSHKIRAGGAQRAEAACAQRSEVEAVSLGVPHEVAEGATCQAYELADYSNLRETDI
Procedure: (§1) First, conditions were determined which allowed measurement of the specific binding of a compound known to bind to the receptor. Then, the binding of the known compound to the receptor in membrane preparations was evaluated in the presence of several different concentrations of the test compound.
(§2) These cell lines were prepared by transfecting the cloned cDNA or cloned genomic DNA or constructs containing both genomic DNA and cDNA encoding the human receptors as described below.
α1d Human Adrenergic Receptor: The entire coding region. of α1d (1719 bp), including 150 base pairs of 5′ untranslated sequence (5′ UT) and 300 bp of 3′ untranslated sequence (3′ UT), was cloned into the BamHI and ClaI sites of the polylinker-modified eukaryotic expression vector pCEXV-3, called EXJ.HR. The construct involved the ligation of partial overlapping human lymphocyte genomic and hippocampal cDNA clones: 5′ sequence were contained on a 1.2 kb SmaI-XhoI genomic fragment (the vector-derived BamHI site was used for subcloning instead of the internal insert-derived SmaI site) and 3′ sequences were contained on a 1.3 kb XhoI-ClaI cDNA fragment (the ClaI site was from the vector polylinker). Stable cell lines were obtained by cotransfection with the plasmid α1A/EXJ (expression vector containing the α1a receptor gene (old nomenclature)) and the plasmid pGCcos3neo (plasmid containing the aminoglycoside transferase gene) into LM(tk-) cells using the calcium phosphate technique. The cells were grown, in a controlled environment (37° C., 5% CO2), as monolayers in Dulbecco's modified Eagle's Medium (GIBCO, Grand Island, N.Y.) containing 25 mM glucose and supplemented with 10% bovine calf serum, 100 units/ml penicillin g, and 100 μg/ml streptomycin sulfate. Stable clones were then selected for resistance to the antibiotic G-418 (1 mg/ml), and membranes were harvested and assayed for their ability to bind [^3H]prazosin as described below (see Radioligand Binding assays).
The cell line expressing the human α1d receptor used herein was designated L-α1A (old nomenclature) and was deposited with the American Type Culture Collection, 12301 Parklawn Drive, Rockville, Md. 20852, U.S.A. under the provisions of the Budapest Treaty for the International Recognition of the Deposit of Microorganisms for the Purposes of Patent Procedure. The cell line expressing the human α1d receptor, was accorded ATCC Accession No. CRL 11138, and was deposited on Sep. 25, 1992.
(§3) Radioligand Binding Assays for α1 Human Adrenergic Receptors: Transfected cells from culture flasks were scraped into 5 ml of 5 mM Tris-HCl, 5 mM EDTA, pH 7.5, and lysed by sonication. The cell lysates were centrifuged at 1000 rpm for 5 min at 4° C., and the supernatant was centrifuged at 30,000×g for 20 min at 4° C. The pellet was suspended in 50 mM Tris-HCl, 1 mM MgCl2, and 0.1% ascorbic acid at pH 7.5. Binding of the α1, antagonist [^3H]prazosin (0.5 nM, specific activity 76.2 Ci/mmol) to membrane preparations of LM(tk-) cells was done in a final volume of 0.25 ml and incubated at 37° C. for 1 hour. Nonspecific binding was determined in the presence of 10 μM phentolamine. The reaction was stopped by filtration through GF/B filters using a cell harvester.

[3] = target: T2, human α1a adrenergic receptor (Homo sapiens, UniProt P35348); assay: Radioligand binding ([3H]prazosin) at cloned human α1a adrenergic receptor; conditions: LM(tk-) cell membranes, read-out: Binding affinities (pKi) α1a (converted)
T2 construct: The entire coding region of α1a (1401 bp); expressed in transfected cells
T2 sequence (P35348 1-466): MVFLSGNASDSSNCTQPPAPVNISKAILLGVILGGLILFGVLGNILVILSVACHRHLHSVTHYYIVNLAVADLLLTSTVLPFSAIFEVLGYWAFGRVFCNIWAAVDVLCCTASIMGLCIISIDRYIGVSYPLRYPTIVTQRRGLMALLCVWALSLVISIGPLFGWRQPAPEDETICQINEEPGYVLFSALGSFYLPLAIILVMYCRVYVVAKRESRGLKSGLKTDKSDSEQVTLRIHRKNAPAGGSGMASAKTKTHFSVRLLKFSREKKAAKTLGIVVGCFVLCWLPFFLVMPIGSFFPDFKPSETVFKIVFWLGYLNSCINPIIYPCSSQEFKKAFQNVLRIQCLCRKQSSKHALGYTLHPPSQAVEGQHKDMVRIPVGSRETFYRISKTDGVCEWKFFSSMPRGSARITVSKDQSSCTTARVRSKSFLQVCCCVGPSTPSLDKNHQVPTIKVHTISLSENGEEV
Procedure: as §1, §2
The construct involved ligating three partial overlapping fragments: a 5′0.6 kb HincII genomic clone, a central 1.8 EcoRI hippocampal cDNA clone, and a 3′0.6 Kb PstI genomic clone. The hippocampal cDNA fragment overlaps with the 5′ and 3′ genomic clones so that the HincII and PstI sites at the 5′ and 3′ ends of the cDNA clone, respectively, were utilized for ligation. This full-length clone was cloned into the KpnI site of the expression vector, using the 5′ and 3′ KpnI sites of the fragment, derived from vector (i.e., pBluescript) and 3′-untranslated sequences, respectively. Stable cell lines were selected as described above. Membranes were harvested and assayed for their ability to bind [^3H]prazosin as described below (see Radioligand Binding assays).
as §3

[4] = target: T3, human α1b adrenergic receptor (Homo sapiens, UniProt P35368); assay: Radioligand binding ([3H]prazosin) at cloned human α1b adrenergic receptor; conditions: LM(tk-) cell membranes, read-out: Binding affinities (pKi) α1b (converted)
T3 construct: The entire coding region of α1b (1563 bp); expressed in transfected cells
T3 sequence (P35368 1-520): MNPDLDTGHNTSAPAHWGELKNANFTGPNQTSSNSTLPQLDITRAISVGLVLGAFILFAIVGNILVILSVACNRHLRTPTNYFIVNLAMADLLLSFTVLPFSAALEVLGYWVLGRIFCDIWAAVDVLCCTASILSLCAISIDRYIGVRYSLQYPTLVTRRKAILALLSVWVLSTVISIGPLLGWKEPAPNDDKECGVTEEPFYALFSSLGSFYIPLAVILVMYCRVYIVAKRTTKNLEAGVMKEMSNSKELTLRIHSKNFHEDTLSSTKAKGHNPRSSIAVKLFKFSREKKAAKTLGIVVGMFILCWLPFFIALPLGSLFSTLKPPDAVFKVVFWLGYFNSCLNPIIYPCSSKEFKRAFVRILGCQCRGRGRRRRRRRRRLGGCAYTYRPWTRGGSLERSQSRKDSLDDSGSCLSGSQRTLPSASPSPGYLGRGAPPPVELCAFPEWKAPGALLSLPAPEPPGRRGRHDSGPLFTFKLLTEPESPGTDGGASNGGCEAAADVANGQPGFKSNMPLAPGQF
Procedure: as §1, §2
α1b Human Adrenergic Receptor: The entire coding region of α1b (1563 bp), including 200 base pairs of 5′ untranslated sequence (5′ UT) and 600 bp of 3′ untranslated sequence (3′ UT), was cloned into the EcoRI site of pCEXV-3 eukaryotic expression vector. The construct involved ligating the full-length EcoRI brainstem cDNA fragment from λ ZapII into the expression vector. Stable cell lines were selected as described above. Membranes were harvested and assayed for their ability to bind [^3H]prazosin as described below (see Radioligand Binding assays). The cell line used herein was designated L-α1B and was deposited with the American Type Culture Collection, 12301 Parklawn Drive, Rockville, Md. 20852, U.S.A. under the provisions of the Budapest Treaty for the International Recognition of the Deposit of Microorganisms for the Purposes of Patent Procedure. The cell line L-α1B was accorded ATCC Accession No. CR 11139, on Sep. 29, 1992.
as §3

Ki [2] [nM]	Ki [3] [nM]	Ki [4] [nM]	SMILES	reversal of the blood pressure effect by WAY 100635 ([1]; 5-HT1A-selective antagonist WAY 100635 1 mg/kg given after plateau)	effect on systolic, diastolic and mean blood pressure ([1]; urethane-anesthetized rats, increasing i.v. doses at 10 min intervals)
1.26	15800	–	C[C@H](CN1CCN(c2cc(F)c(F)cc2F)CC1)N1C(=O)CC2(CCCC2)CC1=O [Compound 9, 8-{(1R)-2-[4-(2,4,5-Trifluorophenyl)piperazin-1-yl]-1-methylethyl}-8-azaspiro[4.5]decane-7,9-dione]	–	–
126	12600	–	C[C@@H](CN1CCN(c2cc(F)c(F)cc2F)CC1)N1C(=O)CC2(CCCC2)CC1=O [Compound 11, 8-{(1S)-2-[4-(2,4,5-Trifluorophenyl)piperazin-1-yl]-1-methylethyl}-8-azaspiro[4.5]decane-7,9-dione]	–	–

The next lines start with the molecule.

SMILES	Ki [2] [nM]	Ki [3] [nM]	Ki [4] [nM]	reversal of the blood pressure effect by WAY 100635 ([1]; 5-HT1A-selective antagonist WAY 100635 1 mg/kg given after plateau)	effect on systolic, diastolic and mean blood pressure ([1]; urethane-anesthetized rats, increasing i.v. doses at 10 min intervals)
COc1ccccc1N1CCN(CCN2C(=O)CC3(CCCC3)CC2=O)CC1 [BMY 7378, reference compound]	–	–	–	reversed	dose-dependent reduction
O=C1CC2(CCCC2)CC(=O)N1[C@@H](CN1CCN(c2cc(F)c(F)cc2F)CC1)c1ccccc1 [Compound 16, 8-{(1R)-1-Phenyl-2-[4-(2,4,5-trifluorophenyl)piperazino]ethyl}-8-azaspiro[4.5]decane-7,9-dione]	79.4	7940	–	–	–
O=C1CC2(CCCC2)CC(=O)N1[C@H](Cc1ccccc1)CN1CCN(c2cc(F)c(F)cc2F)CC1 [Compound 17, 8-{(1R)-1-Benzyl-2-[4-(2,4,5-trifluorophenyl)piperazino]ethyl}-8-azaspiro[4.5]decane-7,9-dione]	79.4	10000	–	–	–
O=C1CC2(CCCC2)CC(=O)N1CCN1CCN(c2ccccc2F)CC1 [Compound 20, 8-{2-[4-(2-Fluorophenyl)piperazin-1-yl]ethyl}-8-azaspiro[4.5]decane-7,9-dione]	–	631	63.1	–	–
